Consider three molecules from ChEMBL document CHEMBL4265976, “Synthesis, molecular docking and inhibition studies of novel 3-N-aryl substituted-2-heteroarylchromones targeting microtubule affinity regulating kinase 4 inhibitors” (Eur J Med Chem, 2018).

The test system of data set [1] is HepG2. As to the kind of experiment: Induction of apoptosis in human HepG2 cells assessed as necrotic cells at IC50 after 24 to 48 hrs by Annexin V-FITC staining-based flow cytometric analysis (reference value: 0%). It is filed as functional.
Data set [2] relates to MCF7. The data set can be described thus: Antiproliferative activity against human MCF7 cells after 48 hrs by MTT assay. It counts as functional, cell-based. The conditions noted are these: for IC50: MCF7, 48 h.
Data set [3] deals with MCF7. As to the kind of experiment: Induction of ROS generation in human MCF7 cells at IC50 after 5 to 6 hrs by DCFDA staining based flow cytometric analysis. It is filed as functional, cell-based. (A flow cytometer gives signals particle by particle.)
Data set [4] has as its system MCF7. As to the kind of experiment: Induction of apoptosis in human MCF7 cells assessed as early apoptotic cells at IC50 after 24 to 48 hrs by Annexin V-FITC staining-based flow cytometric analysis (reference value: 0%). It is filed as functional.
The test system of data set [5] is MCF7. The data set can be described thus: Induction of apoptosis in human MCF7 cells assessed as necrotic cells at IC50 after 24 to 48 hrs by Annexin V-FITC staining-based flow cytometric analysis (reference value: 0%). It counts as functional.
Data set [6] is described as follows: Cytotoxicity against human HEK293 cells assessed as cell viability up to 200 uM after 72 hrs by MTT assay relative to control. The settings on record: read-out: Activity. It counts as cell-based.
For data set [7], the target named is T1, MAP/microtubule affinity-regulating kinase 4 (Homo sapiens) (UniProt Q96L34).
T1 sequence (whole entry): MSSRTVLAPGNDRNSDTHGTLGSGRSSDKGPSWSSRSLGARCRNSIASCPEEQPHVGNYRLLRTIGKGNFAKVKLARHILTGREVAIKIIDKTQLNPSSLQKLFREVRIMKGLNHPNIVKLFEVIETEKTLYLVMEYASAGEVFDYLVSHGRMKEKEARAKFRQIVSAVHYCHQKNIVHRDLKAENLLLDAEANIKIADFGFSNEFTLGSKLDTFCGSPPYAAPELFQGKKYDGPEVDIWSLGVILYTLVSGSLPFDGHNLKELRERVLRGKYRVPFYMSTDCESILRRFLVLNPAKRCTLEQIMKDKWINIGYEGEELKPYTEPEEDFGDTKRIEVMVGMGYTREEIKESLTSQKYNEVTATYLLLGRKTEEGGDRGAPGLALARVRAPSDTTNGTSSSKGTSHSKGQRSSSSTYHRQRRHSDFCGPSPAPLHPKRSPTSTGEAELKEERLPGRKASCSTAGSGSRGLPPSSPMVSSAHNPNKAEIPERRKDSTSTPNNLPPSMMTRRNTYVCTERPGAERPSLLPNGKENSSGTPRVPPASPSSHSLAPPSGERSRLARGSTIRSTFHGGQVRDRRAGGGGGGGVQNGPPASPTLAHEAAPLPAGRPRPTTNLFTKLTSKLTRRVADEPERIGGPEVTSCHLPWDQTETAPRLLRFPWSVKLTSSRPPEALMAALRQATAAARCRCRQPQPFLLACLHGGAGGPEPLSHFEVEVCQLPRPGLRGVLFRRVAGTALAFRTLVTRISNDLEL
The data set can be described thus: Inhibition of MARK4 (unknown origin) (59 to 368 residues) expressed in Escherichia coli M15 3 to 10 uM by dot blot assay.

Data set [8] deals with HepG2. The data set can be described thus: Induction of apoptosis in human HepG2 cells assessed as early apoptotic cells at IC50 after 24 to 48 hrs by Annexin V-FITC staining-based flow cytometric analysis (reference value: 0%). It counts as functional.
Data set [9] has as its target T1, MAP/microtubule affinity-regulating kinase 4 (Homo sapiens). As to the kind of experiment: Binding affinity to MARK4 (unknown origin) (59 to 368 residues) expressed in Escherichia coli M15 up to 10 uM by fluorescence based Stern-Volmer plot analysis.
The test system of data set [10] is MCF7. The data set can be described thus: Induction of apoptosis in human MCF7 cells assessed as late apoptotic cells at IC50 after 24 to 48 hrs by Annexin V-FITC staining-based flow cytometric analysis (reference value: 0%). It is filed as functional.
Data set [11] concerns the target T2, MAP/microtubule affinity-regulating kinase 4 (Homo sapiens, UniProt Q96L34).
T2 sequence (Q96L34 whole entry): T1 sequence (whole entry)
The data set can be described thus: Inhibition of MARK4 (unknown origin) (59 to 368 residues) expressed in Escherichia coli M15 in presence of [gamma-32P]ATP by ATPase assay.

Data set [12] concerns HepG2. The data set can be described thus: Induction of apoptosis in human HepG2 cells assessed as late apoptotic cells at IC50 after 24 to 48 hrs by Annexin V-FITC staining-based flow cytometric analysis (reference value: 0%). It is filed as functional.
Data set [13] relates to HepG2. The data set can be described thus: Induction of apoptosis in human HepG2 cells assessed as viable cells at IC50 after 24 to 48 hrs by Annexin V-FITC staining-based flow cytometric analysis relative to control. It is filed as functional.
For data set [14], the system named is MCF7. As to the kind of experiment: Induction of apoptosis in human MCF7 cells assessed as viable cells at IC50 after 24 to 48 hrs by Annexin V-FITC staining-based flow cytometric analysis relative to control. It is filed as functional.
Data set [15] addresses T1, MAP/microtubule affinity-regulating kinase 4 (Homo sapiens). The data set can be described thus: Inhibition of MARK4-mediated tau phosphorylation in human MCF7 cells at IC50 after 24 hrs by flow cytometric analysis. It counts as cell-based.
The subject of data set [16] is HepG2. The data set can be described thus: Antiproliferative activity against human HepG2 cells after 48 hrs by MTT assay. It counts as functional, cell-based. The settings on record: for IC50: HepG2, 48 h. For orientation: Tetrazolium assays rely on reduction of a dye to a coloured formazan, in cell work by metabolically active cells.

The source made the active and inactive calls. The calls are words filed in the database; no cut-off is given here.

Consider `O=c1c(Nc2ccc(I)cc2)c(-c2ccco2)oc2c(Cl)cc(Cl)cc12`, for which the Activity was 0.013% in the data set on HepG2 [1]; “Dose-dependent effect” with MCF7 [2]; 27.9% in the data set on MCF7 [4]; 0.15% in the data set on MCF7 [5]; 15.2% with HepG2 [8]; 1.9% with MCF7 [10]. The Activity with HepG2 [12] was 2.56%; with HepG2 [13], 82.3%; in the data set on MCF7 [14] it was 70.1%; with HepG2 [16], “Dose-dependent effect”. Also, the IC50 stood at 4.32 µM in the data set on MCF7 [2], 1.98 µM in data set [11] and 5.22 µM in the data set on HepG2 [16]. Moreover, the result (in the data set with MCF7 [3]; in data set [9]) was Active. The viability at 72 h in data set [6] was 85%. Moreover, the inhibition entry in [7] and in data set [15] was “Active” each time.

For `O=c1c(Nc2ccc([N+](=O)[O-])cc2)c(-c2ccco2)oc2c(Cl)cc(Cl)cc12`, the Activity with HepG2 [1] was 4.33%; with MCF7 [2], “Dose-dependent effect”; in the data set with MCF7 [4], 26.5%; with MCF7 [5] it was 1.72%; in the data set on HepG2 [8], 8.53%; in the data set on MCF7 [10], 15.9%. The Activity with HepG2 [12] was 6.54%; in the data set on HepG2 [13] it was 80.6%; with MCF7 [14], 55.8%; in the data set with HepG2 [16] it was “Dose-dependent effect”. The IC50 was 3.22 µM in the data set with MCF7 [2], 2.12 µM in data set [11] and 6.45 µM with HepG2 [16]. Besides, the result (in the data set with MCF7 [3]; in data set [9]) was Active. Moreover, the viability at 72 h in data set [6] was 85%. The inhibition entry in data set [7] and in [15] was “Active” throughout.

As to `COc1ccc(Nc2c(-c3ccco3)oc3ccccc3c2=O)cc1`, the Activity in the data set on HepG2 [1] is 3.12%; in the data set on MCF7 [2] it was “Dose-dependent effect”; with MCF7 [4] it was 18.7%; with MCF7 [5] it was 0.027%; in the data set on HepG2 [8], 5.13%; in the data set on MCF7 [10], 1.21%. In addition, the Activity in the data set on HepG2 [12] was 4.79%; in the data set with HepG2 [13] it was 87%; in the data set on MCF7 [14], 80.1%; in the data set with HepG2 [16], “Dose-dependent effect”. For the same molecule, the IC50 was determined as 16.2 µM in the data set on MCF7 [2], 5.56 µM in [11] and 19.1 µM in the data set with HepG2 [16]. For the same molecule, the outcome (with MCF7 [3]; in data set [9]) was Active. The viability at 72 h in data set [6] came to 85%. The inhibition result in data set [7] and in data set [15] was “Active” throughout.

In general, IC50 refers to the point on the concentration scale where inhibition reaches its midpoint.
